Entries after “also recorded” stand apart in the source; their conditions may differ. A value given as a limit tells only on which side of the number the result lay.

Experiment [1] has as its system TMV. In words: Inactivation effect of compounds against TMV in vivo. More on the design: species or system tobacco mosaic virus. As to conditions: for inhibition at 100 µg/mL / inhibition at 500 µg/mL: Tobacco mosaic virus, read-out: relative inhibition rate (%) inactive effect.
Experiment [2] relates to TMV. The experiment can be described thus: Curative effect of compounds against TMV in vivo. To be noted: Tobacco mosaic virus, read-out: relative inhibition rate (%) curative effect.
The test system of experiment [3] is TMV. The experiment can be described thus: Protective effect of compounds against TMV in vivo. Also on record: species or system tobacco mosaic virus. To be noted: for inhibition at 100 µg/mL / inhibition at 500 µg/mL: Tobacco mosaic virus, read-out: relative inhibition rate (%) protective effect.
Experiment [4] relates to Botrytis cinerea. Format: cell-based. To be noted: read-out: Inhibition rate, Bc.
Experiment [5] has as its system Fusarium graminearum. In words: microbe, parasite or virus in culture. To be noted: read-out: Inhibition rate, Fg. Format: cell-based.
Experiment [6] deals with watermelon anthracnose. In words: organism not typed. Format: cell-based. To be noted: read-out: Inhibition rate, Wa.
The test system of experiment [7] is Alternaria solani. Format: cell-based. To be noted: read-out: Inhibition rate, As.
Experiment [8] has as its system Fusarium oxysporium f. sp. cucumeris. Format: cell-based. As to conditions: read-out: Inhibition rate, Fc.
The test system of experiment [9] is Bipolaris maydis. Format: cell-based. To be noted: read-out: Inhibition rate, Bm.
Experiment [10] relates to Sclerotinia sclerotiorum. Format: cell-based. To be noted: read-out: Inhibition rate, Ss.
The subject of experiment [11] is Physalospora piricola. Format: cell-based. To be noted: read-out: Inhibition rate, Pp, 50 mg/L, Physalospora piricola.
The test system of experiment [12] is Rhizoctonia solani. Format: cell-based. To be noted: read-out: Inhibition rate, Rs.
The test system of experiment [13] is Phytophthora capsici. Format: cell-based. As to conditions: read-out: Inhibition rate, Pc.
The target of experiment [14] is T1, TMV coat protein (TMV-CP) (Tobacco mosaic virus, UniProt P69687).
T1 sequence (P69687 2-159 limits assumed): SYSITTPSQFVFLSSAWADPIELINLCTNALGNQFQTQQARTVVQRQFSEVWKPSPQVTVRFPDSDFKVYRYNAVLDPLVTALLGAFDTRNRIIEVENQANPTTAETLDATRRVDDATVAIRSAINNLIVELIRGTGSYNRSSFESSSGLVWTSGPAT
In words: Microscale thermophoresis binding to TMV-CP.

Experiment [15] relates to TMV particles. The experiment can be described thus: Morphological observation of TMV particles via transmission electron microscopy. Also on record: species or system tobacco mosaic virus. To be noted: 500 mg/L.
Experiment [16] relates to TMV. To be noted: cited from earlier work.
Experiment [17] relates to TMV. To be noted: 500 mg/L; cited from earlier work.
Experiment [18] has as its system TMV. As to conditions: 500 mg/L; cited from earlier work. The source holds these as a separate data set.
In experiment [19] the test system is TMV. As to conditions: 500 mg/L; cited from earlier work. This is another data set of the same source.
The test system of experiment [20] is 14 kinds of phytopathogenic fungi. In words: Fungicidal activity against 14 kinds of phytopathogenic fungi. Format: cell-based. As to conditions: read-out: inhibitory rate against three fungi.

On to `NNC(=O)Cn1ccc(=O)c2ccccc21` [C, (4-Oxo-4H-quinolin-1-yl)-acetic Acid Hydrazide], for which the inhibition at 100 µg/mL in [1] was determined as 17.2 ± 1.1%; in experiment [2] it was 8.2 ± 0.5%; in [3] it was 11.4 ± 2.9%. Besides, the inhibition at 500 µg/mL in [1] turned out to be 45.9 ± 3.3%; in experiment [2] it was 31.5 ± 2%; in [3], 47.8 ± 4.8%.
Take `O=C(Cn1ccc(=O)c2ccccc21)NN=Cc1ccc(-c2ccccc2)cc1` [Compound 11]: the inhibition at 50 µg/mL stood at 25 ± 1.8% in experiment [4]; 9.5 ± 0.7% in experiment [5]; 14 ± 1.7% in [6]; 38.5 ± 2.4% in [7]; 22.4 ± 1.3% in [8]; 11.1 ± 0.9% in experiment [9]. Besides, the inhibition at 50 µg/mL worked out at 22 ± 1.4% in [10], 17.6 ± 1.6% in experiment [11], 35.7 ± 2.2% in experiment [12] and 26.2 ± 1.5% in experiment [13]. The inhibition at 100 µg/mL in experiment [1] is 19.8 ± 2.8%; in experiment [2], 10.1 ± 2%; in experiment [3], 20.9 ± 0.4%. Further, the inhibition at 500 µg/mL in [1] was found to be 49.6 ± 3.9%; in [2], 43 ± 2.7%; in experiment [3], 45.2 ± 1.1%.
As usually defined, the Kd is the constant that tells how readily two partners part at equilibrium. Low readings indicate higher affinity, high ones lower affinity. Consider `NC(=O)c1ncn([C@@H]2O[C@H](CO)[C@@H](O)[C@H]2O)n1` [Ribavirin, reference compound], for which the inhibition at 100 µg/mL in experiment [1] was determined as 12.1 ± 1.4%; in experiment [2], 10.1 ± 1.6%; in experiment [3], 13.4 ± 0.7%. The inhibition at 500 µg/mL in experiment [1] came to 39.2 ± 3.5%; in experiment [2] it was 38 ± 2.2%; in [3], 40.8 ± 1%. This compound gave a dissociation constant (Kd) in experiment [14] of 512 ± 257 nM. In [15], the “effect on the morphology of TMV particles (TEM)” value was “fragmented into shorter rods”.
In the case of `CNCC(=O)N[C@@H](CO)C(=O)N[C@H]1[C@H](O)[C@@H](O)[C@H](n2ccc(N)nc2=O)O[C@@H]1C(N)=O` [Ningnanmycin], in [16], the “actual inhibitory effect in the field” value is given as “lower than 60%”.
Regarding `O=C(Cn1ccc(=O)c2ccccc21)NN=Cc1ccc(C(F)(F)F)cc1` [Compound 17], the inhibition at 50 µg/mL in experiment [4] came out at 18.8 ± 1.5%; in [5] it was 19 ± 1.2%; in experiment [6], 11.6 ± 1.2%; in experiment [7], 15.4 ± 1.3%; in experiment [8], 26.5 ± 1.7%; in [9], 8.9 ± 0.9%. In addition, the inhibition at 50 µg/mL in experiment [10] worked out at 22 ± 1.3%; in experiment [11], 47.1 ± 1.4%; in experiment [12] it was 3.6 ± 0.7%; in experiment [13] it was 9.5 ± 0.8%. For the same compound, the inhibition at 100 µg/mL in experiment [1] is 7.5 ± 0.2%; in [2], 17.7 ± 1.5%; in experiment [3], 19 ± 1.8%. The values for the inhibition at 500 µg/mL in experiment [1], in [2] and in [3] were 47.1 ± 1.9%, 49.2 ± 3% and 44.1 ± 1.4%, respectively.
For the compound `O=C(Cn1ccc(=O)c2ccccc21)NN=Cc1cc2ccccc2[nH]1` [Compound 23], the inhibition at 50 µg/mL in experiment [4] was 10.4 ± 1.2%; in experiment [5], 14.3 ± 1.1%; in experiment [6], 11.6 ± 0.9%; in experiment [7], 15.4 ± 1.5%; in experiment [8], 6.1 ± 1.3%; in [9] it was 8.9 ± 1.1%. Moreover, the inhibition at 50 µg/mL was 12.2 ± 0.9% in experiment [10], 51.5 ± 2.3% in experiment [11], 3.6 ± 0.5% in experiment [12] and 31 ± 2.1% in [13]. Also, the “relative inhibition rate (%) inactive effect” value in experiment [1] (100 mg/L, in vivo, against TMV) was “did not exhibit any”. For the same compound, the inhibition at 100 µg/mL in experiment [1] came out at 0%; in experiment [2], 6.6 ± 1.9%; in experiment [3] it was 0%. Besides, the inhibition at 500 µg/mL is 40.1 ± 2.7% in experiment [1], 32.5 ± 4.1% in experiment [2] and 43.9 ± 1% in experiment [3]. The “relative inhibition rate (%) protective effect” value in experiment [3] (100 mg/L, in vivo, against TMV) was “did not exhibit any”.
As for `Cn1ccc(=O)c2ccccc21` [echinopsine], the “curative activity against TMV” value in experiment [17] was 46.1%. Further, the “inactive activity against TMV” value in experiment [18] is recorded as 49.5%. The “protective activity against TMV” value in experiment [19] is reported as 42.6%.
On to `CN(C)c1ccc(C=NNC(=O)Cn2ccc(=O)c3ccccc32)cc1` [Compound 8], for which the inhibition at 50 µg/mL in [4] was determined as 25 ± 1.2%; in experiment [5] it was 23.8 ± 1.9%; in experiment [6], 16.3 ± 1.7%; in experiment [7] it was 30.8 ± 2.3%; in experiment [8] it was 16.3 ± 1.6%; in [9], 13.3 ± 1.4%. In addition, the inhibition at 50 µg/mL in experiment [10] came to 12.2 ± 1.3%; in experiment [11], 29.4 ± 2.3%; in experiment [12], 35.7 ± 2.1%; in experiment [13], 14.3 ± 1.8%. In addition, the inhibition at 100 µg/mL in experiment [1] turned out to be 0%. Also, the inhibition at 500 µg/mL in experiment [1] was 28.1 ± 1.3%.
For `O=C(Cn1ccc(=O)c2ccccc21)NN=Cc1ccco1` [Compound 20], the inhibition at 50 µg/mL in [4] is 20.8 ± 1.3%; in experiment [5], 14.3 ± 1.4%; in experiment [6] it was 16.3 ± 1.6%; in experiment [7] it was 38.5 ± 0.5%; in experiment [8], 16.3 ± 2%; in experiment [9] it was 20 ± 1.1%. The inhibition at 50 µg/mL in [10] was 36.6 ± 1.7%; in experiment [11], 39.7 ± 1.3%; in [12], 35.7 ± 1.8%; in experiment [13], 14.3 ± 1.1%. For the same compound, the inhibition at 100 µg/mL in experiment [1] was found to be 0%. In addition, in [1], the inhibition at 500 µg/mL was 29.7 ± 3.6%.
Consider `O=C(Cn1ccc(=O)c2ccccc21)NN=Cc1ccc(-n2cccn2)cc1` [Compound 9], for which the inhibition at 50 µg/mL is 25 ± 1.5% in experiment [4]; 9.5 ± 0.5% in [5]; 14 ± 1.5% in [6]; 38.5 ± 1.3% in experiment [7]; 18.4 ± 0.7% in [8]; 15.6 ± 2.1% in experiment [9]. The inhibition at 50 µg/mL in experiment [10] turned out to be 12.2 ± 1.8%; in [11], 27.9 ± 1.2%; in experiment [12], 35.7 ± 2.2%; in experiment [13] it was 14.3 ± 1.1%. Besides, the inhibition at 100 µg/mL in [1] amounted to 5.1 ± 0.8%. Besides, the inhibition at 500 µg/mL in [1] came to 38.1 ± 3.2%.
In the case of `COc1cccc(C=NNC(=O)Cn2ccc(=O)c3ccccc32)c1` [Compound 4], the inhibition at 50 µg/mL is 14.6 ± 0.7% in [4]; 38.1 ± 1.9% in experiment [5]; over 40% in experiment [20]; 39.5 ± 1.1% in experiment [6]; 61.5 ± 3.2% in experiment [7]; 36.7 ± 1.4% in experiment [8]. Also, the inhibition at 50 µg/mL in experiment [9] was 33.3 ± 1.4%; in experiment [10], 36.6 ± 1.5%; in experiment [11], 38.2 ± 1.7%; in experiment [12], 57.1 ± 2.3%; in experiment [13], 38.1 ± 1.7%. The inhibition at 100 µg/mL turned out to be 16.8 ± 0.3% in experiment [1], 14 ± 0.5% in experiment [2] and 15.8 ± 2.5% in experiment [3]. Besides, the inhibition at 500 µg/mL in experiment [1] is 51.2 ± 1.9%; in experiment [2], 47.6 ± 2.5%; in experiment [3], 46.3 ± 1.8%. For the same compound, the Kd in [14] stood at 142 ± 60 nM. Moreover, in [15], the “effect on the morphology of TMV particles (TEM)” value is “hindered the self-assembly and growth of TMV; also recorded: fragmented into shorter rods”.
`O=C(Cn1ccc(=O)c2ccccc21)NN=Cc1coc2ccccc12` [Compound 24]: the inhibition at 50 µg/mL in [4] was 20.8 ± 1.5%; in experiment [5], 19 ± 1.2%; in experiment [6], 9.3 ± 0.7%; in [7], 23.1 ± 1.3%; in experiment [8], 22.4 ± 1.2%; in experiment [9], 11.1 ± 1.8%. Moreover, the inhibition at 50 µg/mL in experiment [10] came out at 12.2 ± 0.5%; in experiment [11], 17.6 ± 1.2%; in [12] it was 17.9 ± 1.5%; in [13] it was 19 ± 0.9%. Also, the inhibition at 100 µg/mL in experiment [1] was 0%. Further, the inhibition at 500 µg/mL in experiment [1] was 33.5 ± 0.6%.

Values taken from publication PMC11360041 (ACS Omega, 2024).
